Results on 13 compounds are retold here after patent US10934309B2, “Tricyclic quinone derivative” (Boston Biomedical, Inc., priority 2014, dated 2021).

Some results are limits rather than exact numbers.

Holding throughout (type): cell-based, human
Experiment [1] concerns HCT-116 cells. Put plainly: Proliferation inhibition assay of cancer cells (Test Example 1), HCT-116. To be noted: Homo sapiens, HCT-116, 96 h, HCT-116 cells, cultured for 4 days, Cell Titer-Glo; read-out: IC50 (μM) HCT; concentration for 50% inhibition of cell proliferation (Bulk IC50 value). The method, boiled down: (§1)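 Test substance added at a final DMSO level of 0.1% and cells cultured 4 days; plating density 300-600 cells/well in 384-well plates, with human colon lines HCT-116 and HT-29 and hypopharyngeal line FaDu.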

Experiment [2] deals with FaDu cells. Put plainly: Proliferation inhibition assay of cancer cells (Test Example 1), FaDu. To be noted: Homo sapiens, FaDu, 96 h, FaDu cells, cultured for 4 days, Cell Titer-Glo; read-out: IC50 (μM) FaDu; concentration for 50% inhibition of cell proliferation (Bulk IC50 value). The method in brief:
as §1
(In ATP-based viability assays light output follows the ATP content of the culture.)

The test system of experiment [3] is HT-29 cells. Kind of experiment: Proliferation inhibition assay of cancer cells (Test Example 1), HT-29. The conditions noted are these: Homo sapiens, HT-29, 96 h, HT-29 cells, cultured for 4 days, Cell Titer-Glo; read-out: IC50 (μM) HT; concentration for 50% inhibition of cell proliferation (Bulk IC50 value). The method in brief:
as §1

Experiment [4] deals with HCT-116 cells. Put plainly: Inhibition assay of cancer cell sphere-forming ability (Test Example 2), HCT-116. The conditions noted are these: Homo sapiens, HCT-116, 96 h, HCT-116 cells, Ultra-Low Attachment plate, serum-free DMEM/F12 with B27, EGF, bFGF, insulin, 4 days, Cell Titer-Glo; read-out: IC50 (μM) HCT; concentration for 50% inhibition of cell proliferation (Sphere IC50 value). The method in brief:
(§2)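 Human tumour lines (colon HCT-116, HT-29; hypopharynx FaDu) seeded on ultra-low-attachment plates to form spheres. Compound added at 0.1% final DMSO, cultured 4 days.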

Experiment [5] deals with FaDu cells. Put plainly: Inhibition assay of cancer cell sphere-forming ability (Test Example 2), FaDu. The conditions noted are these: Homo sapiens, FaDu, 96 h, FaDu cells, Ultra-Low Attachment plate, serum-free DMEM/F12 with B27, EGF, bFGF, insulin, 4 days, Cell Titer-Glo; read-out: IC50 (μM) FaDu; concentration for 50% inhibition of cell proliferation (Sphere IC50 value). The method in brief: as §2

Experiment [6] relates to HT-29 cells. Kind of experiment: Inhibition assay of cancer cell sphere-forming ability (Test Example 2), HT-29. The conditions noted are these: Homo sapiens, HT-29, 96 h, HT-29 cells, Ultra-Low Attachment plate, serum-free DMEM/F12 with B27, EGF, bFGF, insulin, 4 days, Cell Titer-Glo; read-out: IC50 (μM) HT; concentration for 50% inhibition of cell proliferation (Sphere IC50 value). The method, boiled down: as §2

The test system of experiment [7] is cancer cells. Put plainly: Proliferation inhibition test of cancer cells, overall statement on Table 1. To be noted: summary of Table 1. On the procedure: HCT-116 cells (derived from human colon adenocarcinoma), HT-29 cells (derived from human colon cancer), and FaDu cells (derived from human hypopharynx cancer) were obtained from American Type Culture Collection (ATCC). HCT-116 cells and HT-29 cells were cultured using McCoy's 5a medium containing 10% fetal bovine serum (FBS) and 1% penicillin/streptomycin, and FaDu cells were cultured using MEM medium containing 10% FBS, 1% non-essential amino acid, 1% sodium pyruvate, and 1% penicillin/streptomycin, respectively, at 37° C. in the presence of 5% CO2. After cells were seeded at 300-600 cells/well onto black μClear-plate 384 well (Greiner bio-one Cat. No. 781091), a test substance was added such that the final concentration of DMSO is 0.1%, and cultured for 4 days. The number of living cells was then counted using Cell Titer-Glo (Registered trademark) Luminescent Cell Viability Assay (Promega) to calculate a concentration for 50% inhibition of cell proliferation of respective test substances (Bulk IC50 value; μM).

Experiment [8] has as its system cancer cells. Kind of experiment: Inhibition test of cancer cell sphere-forming ability, overall statement on Table 2. The conditions noted are these: summary of Table 2. The method, then:
HCT-116 cells (derived from human colon adenocarcinoma), HT-29 cells (derived from human colon cancer), FaDu cells (derived from human hypopharynx cancer) were obtained from American Type Culture Collection (ATCC). HCT-116 cells and HT-29 cells were cultured using McCoy's 5a medium containing 10% fetal bovine serum (FBS) and 1% penicillin/streptomycin, and FaDu cells were cultured using MEM medium containing 10% FBS, 1% non-essential amino acid, 1% sodium pyruvate, and 1% penicillin/streptomycin, respectively, at 37° C. in the presence of 5% CO2. HCT-116 cells, HT-29 cells, and FaDu cells were seeded onto 384 Well Black Clear Bottom Ultra-Low Attachment Microplate (Corning Cat. No. 3827) using DMEM/F12 medium containing 2% B27 supplement (GIBCO), 20 ng/mL epidermal growth factor (EGF) (peprotech), 10 ng/mL basic fibroblast growth factor (bFGF) (peprotech), 5 μg/mL insulin (Sigma), and 1% penicillin/streptomycin to be 350-800 cells/well. A test substance was added so that the final concentration of DMSO is 0.1%, and then cultured for 4 days. The number of living cells was then counted using Cell Titer-Glo (registered trademark) Luminescent Cell Viability Assay (Promega) to calculate the concentration for 50% inhibition of cell proliferation of respective test substances (Sphere IC50 value; μM).

On to `CC(=O)c1cc2c(s1)C(=O)c1cccnc1C2=O` [Example 1, 2-acetylthieno[2,3-g]quinoline-4,9-dione], for which the IC50 (as a rule, the concentration that gives 50% inhibition) stood at 0.01 µM with HCT-116 cells [1]; 0.01 µM in the experiment with FaDu cells [2]; 0.57 µM with HT-29 cells [3]; 0.02 µM with HCT-116 cells [4]; 0.02 µM in the experiment with FaDu cells [5]; 0.07 µM in the experiment on HT-29 cells [6]. In the experiment on cancer cells [7], the “effect on the inhibition of the proliferation of cancer cells (in words)” value (“effect on the inhibition” for short) is “particularly strong effect”.

Turning to `CC(=O)c1cc2c(s1)C(=O)c1ccncc1C2=O` [Example 12, 2-acetylthieno[2,3-g]isoquinoline-4,9-dione], the concentration for half-maximal inhibition (IC50) was 0.05 µM in the experiment with HCT-116 cells [1]; under 0.01 µM in the experiment on FaDu cells [2]; 0.18 µM in the experiment on HT-29 cells [3]; 0.04 µM in the experiment with HCT-116 cells [4]; under 0.01 µM with FaDu cells [5]; 0.03 µM in the experiment on HT-29 cells [6]. The “effect on the inhibition” value in the experiment with cancer cells [7] is “particularly strong effect”. In addition, the “effect to inhibit cancer cell sphere-forming ability (in words)” value with cancer cells [8] is given as “particularly strong effect”.

As to `CC(O)c1cc2c(s1)C(=O)c1ccncc1C2=O` (stereo not shown) [Example 13, 2-(1-hydroxyethyl)thieno[2,3-g]isoquinoline-4,9-dione], the IC50 was 0.06 µM in the experiment with HCT-116 cells [1]; 0.02 µM in the experiment on FaDu cells [2]; 0.37 µM with HT-29 cells [3]; 0.05 µM in the experiment on HCT-116 cells [4]; under 0.01 µM with FaDu cells [5]; 0.06 µM in the experiment with HT-29 cells [6]. Besides, the “effect to inhibit cancer cell sphere-forming ability (in words)” value with cancer cells [8] is given as “particularly strong effect”.

For the compound `CC(C)(O)c1cc2c(s1)C(=O)c1ccncc1C2=O` [Example 15, 2-(2-hydroxypropan-2-yl)thieno[2,3-g]isoquinoline-4,9-dione], the IC50 was 0.34 µM in the experiment with HCT-116 cells [1]; 0.04 µM in the experiment on FaDu cells [2]; 0.61 µM in the experiment on HT-29 cells [3]; 0.4 µM in the experiment on HCT-116 cells [4]; under 0.01 µM in the experiment on FaDu cells [5]; 0.46 µM in the experiment on HT-29 cells [6]. The “effect to inhibit cancer cell sphere-forming ability (in words)” value in the experiment with cancer cells [8] is “particularly strong effect”.

With `O=C1c2cnccc2C(=O)c2sc(C(O)C3CC3)cc21` (stereo not shown) [Example 16, 2-[cyclopropyl(hydroxy)methyl]thieno[2,3-g]isoquinoline-4,9-dione], the IC50 is 0.06 µM in the experiment with HCT-116 cells [1]; under 0.01 µM with FaDu cells [2]; 0.58 µM with HT-29 cells [3]; 0.22 µM in the experiment on HCT-116 cells [4]; under 0.01 µM in the experiment on FaDu cells [5]; 0.15 µM in the experiment with HT-29 cells [6]. Moreover, the “effect on the inhibition” value in the experiment with cancer cells [7] is “particularly strong effect”. The “effect to inhibit cancer cell sphere-forming ability (in words)” value in the experiment with cancer cells [8] is given as “particularly strong effect”.

For the compound `O=C1c2cnccc2C(=O)c2sc(C(=O)N3CCOCC3)cc21` [Example 20, 2-(morpholin-4-ylcarbonyl)thieno[2,3-g]isoquinoline-4,9-dione], the IC50 is 0.05 µM in the experiment on HCT-116 cells [1]; under 0.01 µM in the experiment on FaDu cells [2]; 0.09 µM in the experiment on HT-29 cells [3]; 0.06 µM with HCT-116 cells [4]; under 0.01 µM in the experiment with FaDu cells [5]; 0.06 µM in the experiment on HT-29 cells [6]. The “effect on the inhibition” value in the experiment on cancer cells [7] is listed as “particularly strong effect”. In addition, the “effect to inhibit cancer cell sphere-forming ability (in words)” value with cancer cells [8] is “particularly strong effect”.

For the compound `CCN(CCOC)Cc1cc2c(s1)C(=O)c1ccncc1C2=O` [Example 24, 2-{[ethyl(2-methoxyethyl)amino]methyl}thieno[2,3-g]isoquinoline-4,9-dione], the half-inhibitory concentration (IC50) is 0.34 µM in the experiment on HCT-116 cells [1]; 0.03 µM with FaDu cells [2]; 0.65 µM in the experiment with HT-29 cells [3]; 0.43 µM in the experiment on HCT-116 cells [4]; under 0.01 µM with FaDu cells [5]; 0.18 µM in the experiment with HT-29 cells [6]. Also, in the experiment with cancer cells [8], the “effect to inhibit cancer cell sphere-forming ability (in words)” value is “particularly strong effect”.

Turning to `O=C1c2cnccc2C(=O)c2sc(CNCC(F)F)cc21` [Example 26, 2-{[(2,2-difluoroethyl)amino]methyl}thieno[2,3-g]isoquinoline-4,9-dione], the IC50 in the experiment on HCT-116 cells [1] was 0.09 µM; in the experiment with FaDu cells [2], 0.02 µM; in the experiment on HT-29 cells [3], 0.45 µM; in the experiment with HCT-116 cells [4] it was 0.17 µM; in the experiment with FaDu cells [5], under 0.01 µM; with HT-29 cells [6] it was 0.07 µM. The “effect to inhibit cancer cell sphere-forming ability (in words)” value in the experiment on cancer cells [8] was “particularly strong effect”.

In the case of `CC(=O)N1CCN(Cc2cc3c(s2)C(=O)c2ccncc2C3=O)CC1` [Example 27, 2-[(4-acetylpiperazin-1-yl)methyl]thieno[2,3-g]isoquinoline-4,9-dione], the concentration for half-maximal inhibition (IC50) in the experiment with HCT-116 cells [1] is 0.5 µM; with FaDu cells [2], 0.03 µM; in the experiment with HT-29 cells [3] it was 0.4 µM; in the experiment on HCT-116 cells [4], 0.47 µM; in the experiment on FaDu cells [5], under 0.01 µM; with HT-29 cells [6], 0.06 µM. In addition, the “effect to inhibit cancer cell sphere-forming ability (in words)” value in the experiment on cancer cells [8] was “particularly strong effect”.

Take `N#Cc1cc2c(s1)C(=O)c1ccncc1C2=O` [Example 29, 4,9-dioxo-4,9-dihydrothieno[2,3-g]isoquinoline-2-carbonitrile]: the half-maximal inhibitory concentration (IC50) in the experiment on HCT-116 cells [1] is 0.04 µM; in the experiment with FaDu cells [2], under 0.01 µM; with HT-29 cells [3] it was 0.32 µM; with HCT-116 cells [4], 0.05 µM; in the experiment on FaDu cells [5], under 0.01 µM; with HT-29 cells [6] it was 0.05 µM. For the same compound, the “effect on the inhibition” value with cancer cells [7] is listed as “particularly strong effect”. The “effect to inhibit cancer cell sphere-forming ability (in words)” value in the experiment with cancer cells [8] was “particularly strong effect”.

Consider `CC(F)c1cc2c(s1)C(=O)c1ccncc1C2=O` (stereo not shown) [Example 30, 2-(1-fluoroethyl)thieno[2,3-g]isoquinoline-4,9-dione], for which the 50% inhibitory concentration (IC50) in the experiment with HCT-116 cells [1] is under 0.01 µM; in the experiment on FaDu cells [2] it was under 0.01 µM; in the experiment with HT-29 cells [3], 0.05 µM; with HCT-116 cells [4] it was under 0.01 µM; in the experiment with FaDu cells [5] it was under 0.01 µM; in the experiment with HT-29 cells [6] it was under 0.01 µM. The “effect on the inhibition” value with cancer cells [7] is listed as “particularly strong effect”. Further, the “effect to inhibit cancer cell sphere-forming ability (in words)” value in the experiment with cancer cells [8] is “particularly strong effect”.

Turning to `CCc1noc(-c2cc3c(s2)C(=O)c2ccncc2C3=O)n1` [Example 31, 2-(3-ethyl-1,2,4-oxadiazol-5-yl)thieno[2,3-g]isoquinoline-4,9-dione], the IC50 is 0.04 µM with HCT-116 cells [1]; under 0.01 µM with FaDu cells [2]; 0.31 µM in the experiment with HT-29 cells [3]; 0.03 µM in the experiment on HCT-116 cells [4]; under 0.01 µM in the experiment with FaDu cells [5]; under 0.01 µM with HT-29 cells [6]. In the experiment with cancer cells [7], the “effect on the inhibition” value is on record as “particularly strong effect”. Also, in the experiment with cancer cells [8], the “effect to inhibit cancer cell sphere-forming ability (in words)” value is on record as “particularly strong effect”.

As to `O=C1c2cc(C(=O)N3CCOCC3)oc2C(=O)c2sccc21` [Example 55, 2-(morpholin-4-ylcarbonyl)thieno[3,2-f][1]benzofuran-4,8-dione], the half-inhibitory concentration (IC50) worked out at 0.05 µM in the experiment on HCT-116 cells [1]; 0.06 µM in the experiment with FaDu cells [2]; 0.58 µM in the experiment with HT-29 cells [3]; 0.04 µM in the experiment on HCT-116 cells [4]; 0.01 µM in the experiment on FaDu cells [5]; 0.04 µM in the experiment on HT-29 cells [6]. For the same compound, in the experiment with cancer cells [8], the “effect to inhibit cancer cell sphere-forming ability (in words)” value is on record as “particularly strong effect”.
